{
  "source": "patent US20070060605A1",
  "about": "“Compositions and methods for inhibiting platelet activation and thrombosis” (priority 2001, published 2007)",
  "key": {"[1]": {"settings": "patients suffering intermittent claudication; cited from earlier work"}, "[2]": {"system": "platelets", "test": "Agonist-induced platelet granule secretion / activation (P-selectin expression by flow cytometry; ADP/ATP release)", "format": "cell-based, human", "method": "In order to monitor ATP release, a cocktail of 100 μM SFLLR (synthesized using solid phase Fmoc chemistry on an Applied Biosystems model 430A peptide synthesizer) and 3 mg/ml of luciferin/luciferase (Sigma, St. Louis, Mo.) in a volume of 10 μl is added to 20 μl of PRP. Samples are immediately analyzed for luminescence. Activated platelets supply the ATP necessary for luminescence of the luciferin/luciferase assay. Assays can be performed at high throughput through use of a microtiter plate system, e.g., 384-well plates and a Multidrop 384 (Thermo Labsystems, Helsinki), read with a high density imaging system, e.g., the Tundra system (Imaging Research, St. Catherine's, Ontario).\nIn order to assay platelet activation by cell surface marker expression, fresh PRP is isolated from donors who have not ingested aspirin for two weeks prior to donation. PRP (40 μl) is incubated with known or suspected inhibitor in DMSO or DMSO alone for 15 min. The sample is then incubated with the indicated agonist (e.g., SFLLR) for 10 min. Following incubation of the sample with the indicated agonist, 10 μl of reaction mixture is transferred to 5 μl of phycoerythrin (PE)-conjugated AC 1.2 anti-P-selectin antibody (for assessment of P-selectin surface expression) or fluorescein isothiocyanate (FITC)-conjugated PAC-1 antibody (for assessment of GPIIbIIIa activation). PBS (500 μl) is added to the sample after a 20 min incubation and the platelets are analyzed immediately by flow cytometry. Flow cytometry can be performed using, for example, a Becton-Dickinson FACSCalibur flow cytometer or its equivalent. Fluorescent channels are set at logarithmic gain. Ten thousand particles are acquired for each sample. A 530/30 band pass filter is used for FL-1 fluorescence. A 585/42 band pass filter is used for FL-2 fluorescence. FITC is measured in the FL-1 channel and PE is measured in the FL-2 channel. Data are analyzed using, for example, CellQuest software on a Macintosh PowerPC, or their equivalents.\nCompounds were tested for the ability to inhibit agonist-induced ADP/ATP release from platelet dense granules using a luciferin-luciferase reporter system. In this assay, compounds were incubated with platelet-rich plasma (PRP) for 30 min. A cocktail of the platelet agonist and luciferin-luciferase was then added to the wells. Plates were immediately analyzed using a Tundra high density luminescence imager. […] As a control, compounds were also screened in a platelet-free assay for the ability to inhibit luciferin-luciferase upon exposure to ATP.\nEach of the compounds was tested for inhibition of platelet activation in response to the agonists SFLLR (a thrombin mimic), U46619 (a thromboxane A2 mimic), ADP and the phorbol ester PMA.\nCompounds were also tested by flow cytometry for the inhibition of SFLLR-induced GPIIbIIIa activation and P-selectin expression. In these experiments, freshly obtained PRP was prepared from healthy volunteers who had not ingested aspirin for two weeks prior to donation. Forty μl of PRP was incubated with inhibitor in DMSO or DMSO alone for 15 min. The sample was then incubated with the indicated agonist for 10 min. Following incubation of the sample with the indicated agonist, 10 μl of reaction mixture was transferred to 5 μl of PE-conjugated AC1.2 anti-P-selectin antibody (for assessment of P-selectin surface expression) or FITC-conjugated PAC-1 antibody (for assessment of GPIIbIIIa activation). PBS (500 μl) was added to the sample after a 20 min incubation and the platelets were analyzed immediately by flow cytometry. Flow cytometry was performed using a Becton-Dickinson FACSCalibur flow cytometer. Fluorescent channels were set at logarithmic gain. Ten thousand particles were acquired for each sample. A 530/30 band pass filter was used for FL-1 fluorescence. A 585/42 band pass filter was used for FL-2 fluorescence. FITC was measured in the FL-1 channel and PE was measured in the FL-2 channel."}, "[3]": {"system": "mouse platelets"}, "[4]": {"system": "platelet accumulation into thrombus", "format": "in vivo", "settings": "bolus 6 mg/kg/5 min then continuous infusion 3 mg/kg/90 min; P<0.01", "description": "A preferred animal model involves intravital microscopy of laser-induced thrombi. The method is described by Rosen et al., 2001, Am J Pathol 158, 1613-1622, which is incorporated herein by reference. Minor variations of that method were employed as described below.\nExperimental mice are pre-anesthetized and surgically prepared. A tracheal tube is placed to facilitate breathing and the jugular vein is canulated to allow for maintenance of anesthetic and introduction of compound. The cremaster muscle is then exteriorized. The muscle is affixed over a glass slide, allowing illumination from below. A steady drip of a sodium-bicarbonate buffered salt solution is maintained throughout the experiment to keep the exposed muscle moist. Blood flow in the muscle is visualized using a 40× water immersion lens and epi-illuminated with an appropriately filtered light source. Alexa 488-labeled anti-mouse CD41 antibody is injected through the jugular canulus to label platelets in vivo.\nThrombosis is initiated by damaging the vessel wall (of a 30 μm vessel) with a laser pulse from a MicroPoint LASER attached to the microscope. A LASER pulse is delivered, causing damage in an area smaller than 1 μm. The recruitment of platelets to the thrombus is then monitored by the accumulation of (activated) Alexa 488-labeled platelets at the ablation site using fluorescence microscopy, and the process is recorded digitally. The method thus permits in vivo analysis of platelet activation as measured by platelet aggregation and thrombosis.\nThe degree of embolization in an untreated mouse can be quantified using software for image analysis, e.g., BioQuant True Color Windows (Biometrics, Nashville, Tenn.), as described in Rosen et al., 2001, supra. The software package permits the determination of the “integrated optical density” or IOD of the thrombus.\nUsing quantitative intravital fluorescence videomicroscopy with high temporal resolution (111 images/second), the effect of PDE3 inhibition on the platelet recruitment into thrombi was directly observed over time. Platelets were fluorescently labeled by infusing rat-anti-mouse CD41 and Alexa 488-anti-rat IgG through a cannulated jugular vein. The cremaster microvasculature was exposed and mapped and suitable arteriole segments were selected for laser-induced injury. A series of control injuries were generated prior to infusion of the inhibitory compound. The power and the number of laser pulses required to generate each thrombus was recorded. Platelet accumulation to the thrombi following laser ablation was recorded using digital videomicroscopy. The thrombus total fluorescence in each frame of the videos was analyzed using Slidebook software for digital videomicroscopy. The pyridazinone compound was then infused. Following a 15 minute incubation, a series of experimental injuries were generated 250 μm proximal, with relationship to blood flow, of the first injury and the resultant thrombi were recorded. The power and the number of pulses required to induce the control thrombus was used to induce the experimental thrombus. The control and experimental thrombi constituting a pair were compared for statistical analysis. The total fluorescence intensity of the thrombi before and after the infusion of pyridazinone compound was recorded.\nImages from a representative experiment of the recruitment of fluorescently-labeled […] platelets into a growing thrombus over time is shown in FIG. 9A."}, "[5]": {"target": "platelet cGMP-inhibited phosphodiesterase (Homo sapiens, UniProt Q14432)", "sequence (Q14432 whole entry)": "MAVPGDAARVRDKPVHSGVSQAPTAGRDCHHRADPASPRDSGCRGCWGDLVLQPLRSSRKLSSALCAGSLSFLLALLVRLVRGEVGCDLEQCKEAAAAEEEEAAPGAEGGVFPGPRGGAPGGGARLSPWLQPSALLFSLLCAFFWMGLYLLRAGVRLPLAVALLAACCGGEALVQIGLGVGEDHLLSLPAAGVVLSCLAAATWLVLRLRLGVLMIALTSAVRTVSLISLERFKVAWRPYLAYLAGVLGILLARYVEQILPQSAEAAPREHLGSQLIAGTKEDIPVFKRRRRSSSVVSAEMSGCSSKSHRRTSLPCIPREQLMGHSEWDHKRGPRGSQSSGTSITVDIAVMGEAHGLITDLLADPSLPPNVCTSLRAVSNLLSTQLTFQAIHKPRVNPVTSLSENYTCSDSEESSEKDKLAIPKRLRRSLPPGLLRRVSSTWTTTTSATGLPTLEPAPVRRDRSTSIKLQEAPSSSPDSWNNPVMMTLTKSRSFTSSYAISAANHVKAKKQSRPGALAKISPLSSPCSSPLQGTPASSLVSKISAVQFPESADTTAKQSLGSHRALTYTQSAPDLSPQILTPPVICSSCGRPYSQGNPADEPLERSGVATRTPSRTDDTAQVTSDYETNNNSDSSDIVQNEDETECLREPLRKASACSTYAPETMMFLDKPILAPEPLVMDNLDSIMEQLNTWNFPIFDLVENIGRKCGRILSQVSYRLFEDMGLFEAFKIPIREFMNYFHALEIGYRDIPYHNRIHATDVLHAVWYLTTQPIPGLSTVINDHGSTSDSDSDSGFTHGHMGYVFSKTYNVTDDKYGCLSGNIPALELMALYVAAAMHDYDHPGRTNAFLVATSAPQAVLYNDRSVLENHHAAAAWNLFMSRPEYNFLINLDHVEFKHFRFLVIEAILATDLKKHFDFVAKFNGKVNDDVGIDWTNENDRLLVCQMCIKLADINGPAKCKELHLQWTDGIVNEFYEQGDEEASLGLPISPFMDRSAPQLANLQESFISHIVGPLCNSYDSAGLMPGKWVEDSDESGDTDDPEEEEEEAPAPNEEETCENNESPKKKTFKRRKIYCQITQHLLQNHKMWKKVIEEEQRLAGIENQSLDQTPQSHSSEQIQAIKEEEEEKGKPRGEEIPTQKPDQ", "settings": "Omburo et al., 1995; cited from earlier work"}},
  "note": "Where two headings read alike, the source gives them in different places.",
  "data": [
    {"molecule": "O=C1CCc2cc(OCCCCc3nnnn3C3CCCCC3)ccc2N1", "note": "[cilostazol]", "values": [
      {"measurement": "Increase of distance of pain free walking", "setting": "[1]", "value": "up to 59%"}
    ]},
    {"molecule": "9-methylene-4-(alkyl)-2,3,4,9-tetrahydro-1H-cyclopenta(b)quinoline", "values": [
      {"measurement": "IC50", "setting": "[2]; agonist ADP, read-out: IC50s of inhibition of platelet granule secretion induced with ADP", "value": 650, "unit": "µM"},
      {"measurement": "IC50", "setting": "[2]; agonist PMA, read-out: IC50s of inhibition of platelet granule secretion induced with PMA", "value": 300, "unit": "µM"},
      {"measurement": "IC50", "setting": "[2]; agonist SFLLR, read-out: IC50s of inhibition of platelet granule secretion induced with SFLLR", "value": 5, "unit": "µM"},
      {"measurement": "IC50", "setting": "[2]; agonist U-46619, read-out: IC50s of inhibition of platelet granule secretion induced with U-46619", "value": 400, "unit": "µM"},
      {"measurement": "Activation of mouse platelets by several platelet agonists", "setting": "[3]", "value": "inhibits"},
      {"measurement": "Inhibition of thrombosis following laser-induced injury", "setting": "[4]", "value": "greater than 80%"}
    ]},
    {"molecule": "c1cnc2c(c1)ccc1cccnc12", "note": "[[1,10]phenanthroline]", "values": [
      {"measurement": "IC50", "setting": "[5]", "value": "~2000", "unit": "µM"}
    ]}
  ]
}
